Measurements reported in US20240197677A1 (VIVIER CANADA INC., priority 2016, published 2024).

How the values were obtained:
[1] = test system: EpiDermFT™ (EFT-400) human in vitro tissue model
Procedure: EFT-400 tissues were treated with test compound every 48 hours for 4, 7 and 10 days.
Epidermal thickness was assessed by measuring 10 random regions of the Hematoxylin and Eosin (H&E) stained tissue sections using OlyVIA™ software.

[2] = cited from earlier work

Compound | Thickness of H&E stained tissue sections (FIGS. 1A-F) ([1]; 0.1% Putrescine for 4 days) | Epidermis Thickness, Tissue1, Av. ([1]; 0.1% Test Article, EFT-400 Tissue1, average of 10 regions) | Epidermis Thickness, Tissue2, Av. ([1]; 0.1% Test Article, EFT-400 Tissue2, average of 10 regions) | Epidermis Thickness, Tissue3, Av. ([1]; 0.1% Test Article, EFT-400 Tissue3, average of 10 regions) | Epidermis Thickness, Av. of three tissues ([1]; 0.1% Test Article, average over Tissue1-3 (untreated 80.264 μm)) | Average increase of epidermal thickness versus untreated tissues ([1]; 0.1% putrescine) | Epidermal thickness, average ([1]; 0.1% putrescine basolaterally in culture medium, 10 random regions of H&E sections) | Epidermal tissue thickness, visual (Cytokeratin 10 / desmoplakin-1 immunostaining) ([1]; after 4 days, 0.1% Putrescine) | Tissue morphology ([1]; day 4, 0.1% Putrescine) | pKa [2]
Cl.Cl.NCCCCN [putrescine, 1,4-Diaminobutane dihydrochloride] | increased thickness | 113.846 μm | 117.160 μm | 121.676 μm | 117.561 μm | over 46% | 117.561 μm | visually appear thicker than the untreated control tissues | consistent with healthy tissue | 10.51
O=C1O[C@H]([C@@H](O)CO)C(O)=C1O [Vitamin C, L-ascorbic acid, reference compound] |  |  |  |  |  |  |  |  |  | around 4.17
